Experimental data: patent publication US20030021856A1, “New use of ammonium compounds and/or urea” (priority 1996, published 2003)

Tests used:
[1] = supplied intravenously and perorally; known by intensive care physicians; cited from earlier work
[2] = Peroral self-administration of ammonium chloride by the inventor (respiratory gas exchange); type: in vivo, human; conditions: 80 mmoles ammonium chloride perorally
Description: Please replace the paragraph beginning at line 1 on page 5 with the following: portal area, especially at acidosis, can be utilized for synthesis of glutamine in the liver. […] When the patient treated is breathing by themself, the supply of ammonium will bring about a so-called compensatory hyperventilation. […] Furthermore, there is a report on the concentration of urea in the vitreous body of dead SIDS patients which is compared to autopsy material from children deceased from other causes at the same age [Blumenfeld T A, et al, Am J Clin Pathol, 71, 219-223 (1979)]. It appeared that children deceased from SIDS have lower urea values than children deceased from other causes. […] The low concentration of urea found is thus not inconsistent with the hypothesis put forward here.

Compound: Cl.N [ammonium chloride]
- effect on base excess values [1]: lowers base excess values
- duration of the increased carbon dioxide elimination [2]: ~1 h
- effect on ventilation [2]: slight hyperventilation
- increase in elimination of carbon dioxide [2]: 30 mL/min
- resorption from the gastrointestinal tract [2]: resorbed very quickly
- total carbon dioxide corresponding to the increased elimination ([2]; 30 ml/min for nearly 1h): about 80 mmoles
- RQ (Respiratory Quotient = carbon dioxide emission / oxygen gas uptake) after administration ([2]; value at rest 0.82): 0.87
